# Results: publication PMC3749181, “Rapid Identification of Antifungal Compounds against Exserohilum rostratum Using High Throughput Drug Repurposing Screens” (PLoS ONE, 2013)
# Read-outs that look alike come from different tables or passages of the source.
# Experiments:
# [1] = test system: E. rostratum hyphal fragments; test: hyphal fragment fungicidal ATP content assay (PBS, 1536-well); format: cell-based, Exserohilum rostratum; settings: for Hyphae % Max. Resp. / Emax / Hyphae % M. Res.: 46 µM Amphotericin B = 100%; for IC50: read-out: Hyphae IC50
# Procedure: (§1) Conidia and hyphae of E. rostratum were obtained as described by Richard et al., with the following modifications. Briefly, conidia were harvested from Potato Dextrose Agar (PDA) cultured media with 0.05% Tween 80, and the conidial suspension was filtered using a Cell Strainer (100 µm, BD Falcon REF 352340). After centrifugation at 700g for 10 min, the suspension was decanted and conidia were resuspended at 1×10^5 per ml in RPMI and counted in a hemocytometer. Hyphae were harvested from yeast extract peptone dextrose (YPD) culture media with 0.05% Tween 80. Hyphal fragments were sized by vortexing 15 sec twice with 0.4 mm glassbeads, and the hyphae suspension was filtered by cheese cloth twice. […] To normalize concentrations of hyphal fragments for batch to batch consistency, carbohydrate analysis was performed by a phenol-sulfuric acid method as previously described. The final stock concentration of hyphae was adjusted to 1.0 (OD490) per 100 µl.
# (§2) The ATPLite assay kit, consisting of luciferase/luciferin and detergent, was used to quantitate cellular ATP levels as a marker for cell viability (Table 1). For assay development, hyphal fragments or conidia in PBS were plated in a seeding density of 3,750, 7,500 and 15,000 cellular particles/well with a final volume of 5 µl/well using the Multidrop-Combi dispenser in white 1536-well plates. Conidia or hyphae fragments were incubated for 24 h at 37°C in a 5% CO2 humidified atmosphere. ATPLite detection reagents were added at 4 µl/well. The assay plates were incubated at room temperature for 15 minutes before reading luminescence intensity on a ViewLux plate reader (Perkin Elmer, Waltham, MA). Conidia suspended in RPMI medium were inoculated at concentrations of 62.5, 125 and 250 conidia/well with a final volume of 5 µl/well in white 1536-well plates. The conidia assay was developed and optimized in the same way as the hyphal assay.
# (§3) The LOPAC library (Sigma-Aldrich) has been extensively used for HTS assay validations, [18]. The NIH Chemical Genomics Center Pharmaceutical (NPC) collection was constructed in-house through a combined effort of compound purchasing and custom synthesis and recently expanded to 4096 compounds. […] 2.5 µl/well PBS was dispensed into 1536-well plates using a Multidrop-Combi dispenser. Compound in DMSO solution was transferred in a volume of 23 nl/well using a NX-TR pintool station (WAKO Scientific Solutions, San Diego, CA). This additional PBS step for compound addition was designed to prevent the potential fungal contamination of compound libraries. The hyphal fragments in PBS were then added at 2.5 µl/well for a final seeding density of 15,000 hyphal fragments/well using the Multidrop-Combi dispenser. The final compound concentration was 46 µM in the primary screen. The assay plates were incubated for 24 h at 30°C before the detection of cellular viability with the ATP content assay. Screen of conidia was performed in a similar way except that PBS was replaced with RPMI medium and conidia were plated for a final seeding density of 250 conidia/well.
# (§4) The primary screen data and curve fitting were analyzed using software developed internally at the NIH Chemical Genomics Center (NCGC). Total signals for cellular viability (100% cellular viability) were calculated from the wells with DMSO solvent and the complete cell killing (0% cellular viability) was calculated from 46 µM amphotericin B treated wells. […] All values were expressed as the mean +/− SD (n≥3).
# SH-SY5Y cells = test: SH-SY5Y cytotoxicity counter-screen (ATP content assay); format: cell-based, Human; settings: for SH-SY5Y % Max. Resp.: Table 2, SH-SY5Y, inact. = no significant activity at 46 µM; for SH-SY5Y % M. Res.: Inact. = no significant activity at 46 µM
# Procedure: Human neuroblastoma SH-SY5Y cell line (Catalog No. CRL-2266) was purchased from ATCC (Manassas, VA). SH-SY5Y cell line was cultured in 175-cm^2 tissue culture flasks (Costar, Cambridge, MA) with 30 ml of growth medium at 37°C in a 5% CO2 humidified atmosphere. Growth medium was made with Dulbecco's Modified Eagle Medium: Nutrient Mixture F-12 with 10% fetal bovine serum (FBS). Growth medium was replaced every other day and cells were passed at 75% confluence.
# as §2
# Two small known compound libraries including the LOPAC (1280 compounds) and approved drugs (4096 compounds) were screened in parallel using the above optimized assays for hyphae and conidia in 1536-well plates (Fig. 4). […] A mammalian SH-SY5Y cell line was used in parallel as a counter-screen with the same ATP content assay kit to assess the specificity of these compounds for E. rostratum.
# E. rostratum conidia = test: conidia growth inhibition ATP content assay (RPMI, 1536-well); format: cell-based, Exserohilum rostratum; settings: for Conidia % Max. Resp. / Emax / Conidia % M. Res.: 46 µM Amphotericin B = 100%; for IC50: read-out: Conidia IC50
# Procedure: as §1, §2, §3, §4
# [2] = Table 2, inact. = no significant activity in the primary screen
# [3] = Table 2, 24 h, inact. = no significant activity in the primary screen
# [4] = Table 2, inact. = no significant activity at 46 µM
# [5] = Table 2, 24 h, inact. = no significant activity at the highest compound concentration (46 µM)
# [6] = Exserohilum rostratum, Table 2, inact. = no significant activity in the primary screen, read-out: Hyphae % Max. Resp.
# [7] = Exserohilum rostratum, Table 2, 24 h, inact. = no significant activity in the primary screen
# [8] = Exserohilum rostratum, 24 h, Table 2, 24 h, inact. = no significant activity at the highest compound concentration (46 µM)
# [9] = Exserohilum rostratum, Table 2, inact. = no significant activity at 46 µM, read-out: Conidia % Max. Resp.
# [10] = Table S1, Inact. = no significant activity in the primary screen
# [11] = Table S1, 46 µM Amphotericin B = 100%
# [12] = Table S1, Inact. = no significant activity at the highest compound concentration (46 µM)
# [13] = Table S1, Inact. = no significant activity at 46 µM
# [14] = Exserohilum rostratum, Table S1, Inact. = no significant activity in the primary screen, read-out: Hyphae % M. Res.
# [15] = Exserohilum rostratum, Table S1, Inact. = no significant activity in the primary screen
# [16] = Exserohilum rostratum, Table S1, Inact. = no significant activity at 46 µM, read-out: Conidia % M. Res.
Compound,"Hyphae % Max. Resp. [1, 2]",SH-SY5Y % Max. Resp. (SH-SY5Y cells; 46 µM Amphotericin B = 100%),SH-SY5Y % Max. Resp. (SH-SY5Y cells),"Hyphae % M. Res. [1, 10]","Hyphae IC50 [1, 10]",SH-SY5Y % M. Res. (SH-SY5Y cells; [11]),SH-SY5Y IC50 (SH-SY5Y cells; [12]),Conidia % M. Res. (E. rostratum conidia; [13]),Conidia IC50 (E. rostratum conidia; [12]),other results
CC(=O)[O][Hg][c]1ccccc1 [Phenylmercuric acetate],inact.,96%,0.417%,,,,,,,"Hyphae IC50 [1, 3]: inact.; Conidia % Max. Resp. (E. rostratum conidia; [4]): 99%; IC50 (E. rostratum conidia; [5]): 146 nM"
Cc1cc(N)c2ccccc2[n+]1CCCCCCCCCC[n+]1c(C)cc(N)c2ccccc21 [Dequalinium dichloride],,inact.,inact.,,,,,,,"Emax [1, 6]: 93%; IC50 [1, 7]: 673 nM; IC50 (E. rostratum conidia; [8]): 2540 nM; Emax (E. rostratum conidia; [9]): 109%"
O=P(O)(O)OC(Cn1cncn1)(Cn1cncn1)c1ccc(F)cc1F [Fosfluconazole],,,,Inact.,Inact.,Inact.,Inact.,Inact.,Inact.,
O=C1C2CC=CCC2C(=O)N1SC(Cl)(Cl)Cl (stereo not drawn) [Captan],,100%,18.6%,,,,,,,"Emax [1, 6]: 82%; IC50 [1, 7]: 1170 nM; Conidia % Max. Resp. (E. rostratum conidia; [4]): inact.; Conidia IC50 (E. rostratum conidia; [5]): inact."
Phenylmercuric borate,inact.,99%,0.417%,,,,,,,"Hyphae IC50 [1, 3]: inact.; Conidia % Max. Resp. (E. rostratum conidia; [4]): 103%; IC50 (E. rostratum conidia; [5]): 149 nM"
c1ccc(-c2ccc(C(c3ccccc3)n3ccnc3)cc2)cc1 (stereo not drawn) [Bifonazole],,,,,,47%,,,,"Emax [1, 14]: 74%; IC50 [1, 15]: 11800 nM; IC50 (SH-SY5Y cells; Homo sapiens, SH-SY5Y, Table S1, Inact. = no significant activity at the highest compound concentration (46 µM)): 46900 nM; IC50 (E. rostratum conidia; Exserohilum rostratum, Table S1, Inact. = no significant activity at the highest compound concentration (46 µM)): 9350 nM; Emax (E. rostratum conidia; [16]): 64%"
Sc1nc2ccccc2s1 [2-Mercaptobenzothiazole],,,,Inact.,Inact.,Inact.,Inact.,Inact.,Inact.,
CNc1ccc2oc(C[C@H]3O[C@@]4(CC[C@H]3C)O[C@H]([C@H](C)C(=O)c3ccc[nH]3)[C@H](C)C[C@H]4C)nc2c1C(=O)O [Calcimycin],inact.,94%,3.95%,,,,,,,"Hyphae IC50 [1, 3]: inact.; IC50 (E. rostratum conidia; Exserohilum rostratum, 24 h): 735 nM; Emax (E. rostratum conidia; [9]): 51%"
CN(C/C=C/C#CC(C)(C)C)Cc1cccc2ccccc12 [Terbinafine],,,,,,Inact.,Inact.,Inact.,Inact.,"Emax [1, 14]: 64%; IC50 [1, 15]: 34000 nM"
N[C@@H](COP(=O)(O)O)C(=O)O [Dexfosfoserine],,,,Inact.,Inact.,Inact.,Inact.,Inact.,Inact.,
[N-]=[N+]=CC(=O)OC[C@H](N)C(=O)O [Azaserine],,,,Inact.,Inact.,Inact.,Inact.,Inact.,Inact.,
Cc1ccc(/C=N/n2c(-c3ccccc3)csc2=S)cc1 [Fezatione],,,,Inact.,Inact.,Inact.,Inact.,Inact.,Inact.,
C[CH2][Hg][S]c1ccccc1C(=O)[O-].[Na+] [Thimerosal],inact.,96%,2.63%,,,,,,,"Hyphae IC50 [1, 3]: inact.; Conidia % Max. Resp. (E. rostratum conidia; [4]): 102%; IC50 (E. rostratum conidia; [5]): 139 nM"
Clc1ccc(C(Cn2ccnc2)OCc2ccsc2Cl)c(Cl)c1 (stereo not drawn) [Tioconazole],,inact.,inact.,,,Inact.,Inact.,,,"Emax [1, 6]: 100%; IC50 [1, 7]: 5970 nM; Emax [1, 14]: 100%; IC50 (E. rostratum conidia; [8]): 8550 nM; Emax (E. rostratum conidia; [9]): 101%; Emax (E. rostratum conidia; [16]): 101%"
COCc1c(C(C)C)nc(C(C)C)c(/C=C/[C@@H](O)C[C@@H](O)CC(=O)O)c1-c1ccc(F)cc1 [Cerivastatin sodium],,inact.,inact.,,,,,,,"Emax [1, 6]: 79%; IC50 [1, 7]: 1610 nM; IC50 (E. rostratum conidia; [8]): 472 nM; Emax (E. rostratum conidia; [9]): 101%"
Bleomycin sulfate,inact.,inact.,inact.,,,,,,,"Hyphae IC50 [1, 3]: inact.; Conidia % Max. Resp. (E. rostratum conidia; [4]): 98%; IC50 (E. rostratum conidia): 1240 nM"
O=C1[O][Pt]2([NH][C@@H]3CCCC[C@H]3[NH]2)[O]C1=O [Oxaliplatin],76%,inact.,inact.,,,,,,,"IC50 [1, 3]: 935 nM; Conidia % Max. Resp. (E. rostratum conidia; [4]): 95%; IC50 (E. rostratum conidia): 4950 nM"
Mepartricin,,,,Inact.,Inact.,38%,,80%,,IC50 (SH-SY5Y cells): 37200 nM
Oc1ccc(Cl)cc1Sc1cc(Cl)ccc1O [Fenticlor],inact.,inact.,inact.,,,,,,,"Hyphae IC50 [1, 3]: inact.; IC50 (E. rostratum conidia; Exserohilum rostratum, 24 h): 5720 nM; Emax (E. rostratum conidia; [9]): 107%"
COC1=CC(=O)C[C@@H](C)[C@]12Oc1c(Cl)c(OC)cc(OC)c1C2=O [Griseofulvin],,,,Inact.,Inact.,Inact.,Inact.,Inact.,Inact.,
Cc1cccc(N(C)C(=S)Oc2ccc3c(c2)CCC3)c1 [Tolindate],,,,Inact.,Inact.,Inact.,Inact.,Inact.,Inact.,
